The source of these data is patent publication US20120016010A1, “RNA Interference Mediated Inhibition of BTB and CNC Homology 1, Basic Leucine Zipper Transcription Factor 1 (BACH1) Gene Expression Using Short Interfering Nucleic Acid (siNA)” (Merck Sharp & Dohme Corp, priority 2009, published 2012).

[invAb] = inverted abasic unit; m = 2'-O-methyl; r = 2'-OH (RNA); f = 2'-fluoro

Data set [1] relates to Bach1 mRNA. Kind of data set: Initial screen: Bach1 mRNA knock-down in mouse NIH 3T3 cells (96-well transfection, quantitative RT-PCR). It counts as cell-based. The settings on record: mouse NIH3T3 cells, n = 2, 24 hrs post-transfection, protocol 10 nM siNA.
In data set [2] the test system is Bach1 mRNA. Kind of data set: Initial screen: Bach1 mRNA knock-down in human A549 cells (96-well transfection, quantitative RT-PCR). It counts as cell-based. The settings on record: Bach1 mRNA, 10 nM siNA, human A549 cells, n = 2, mean ± S.D., normalized to GAPDH and non-targeting control, 24 hrs post-transfection.
The subject of data set [3] is cigarette smoke-induced lung destruction. The note with it: Sussan et al (2009); cited from earlier work.
The subject of data set [4] is Heme Oxygenase-1 (HO-1) protein. In words: HO-1 protein expression by Western Blot in airway epithelial cells from a COPD subject. In kind it is cell-based, human. The settings on record: FIG. 13, positive controls, 18-hour treatment period. As to the method: Human airway epithelial cells were obtained by bronchoscopy from a subject with COPD (35-pack years). The cells were seeded at a density of 1×10^5 cells in a 24-well plate and incubated at 37° C. and 5% CO2 overnight. […] Whole cell lysates were created to detect Heme Oxygenase-1 (HO-1) protein expression via Western Blot.
Whole cell lysates were quantified and 5 micrograms of protein per lane were loaded into a 12.5% Tris-HCL gel. A 1:5000 dilution of Anti-Human Heme Oxygenase-1 polyclonal antibody (Assay Designs) was used to detect HO-1 protein levels. The blot was stripped and reprobed with a beta actin antibody to confirm equal loading.
For orientation: Immunoblotting shows a protein as a band on a membrane.

As to “29987-DC: Bach1 siNA duplex, target site 1313; sense B GGcuucuGGAGuGAcAuuu TTB (SEQ 123); antisense AAAuGucAcuccAGAAGccUU (SEQ 124) (sense GGCUUCUGGAGUGACAUUUTT; antisense AAAUGUCACUCCAGAAGCCUU; sense: DNA at AGT, 2'-fluoro at CU, [invAb] at 5' end, 3' end, backbone not given here; antisense: sugars from the 5' end rrrfmffmffffmmmmmffmm, backbone not given here)”, the “% KD” value was −16.1 ± 11.6% in data set [1] and 16 ± 0.2% in data set [2]. Take `CC1(C)CC[C@]2(C(=O)n3ccnc3)CC[C@]3(C)[C@H](C(=O)C=C4[C@@]5(C)C=C(C#N)C(=O)C(C)(C)[C@@H]5CC[C@]43C)[C@@H]2C1` [CDDO-Im]: the “lung oxidative stress markers, alveolar cell apoptosis and the subsequent lung destruction, and pulmonary hypertension” value in data set [3] is recorded as “significantly reduce”. Take `C[S+]([O-])CCCCN=C=S` (centres unmarked) [Sulforaphane]: the HO-1 protein expression result in data set [4] is reported as “increased HO-1 protein expression”.

Take hemin: in data set [4], the HO-1 protein expression entry is on record as “increased HO-1 protein expression”.
